Tests used:
[1] = system: HCMV strain AD169; experiment: Functional plaque reduction assay in HFF infected with human CMV; assay type: cell-based; conditions: for inhibition of CMV replication: plaque reduction assays in HFF treated with decreasing concentrations (Fig. 1-4)
Procedure: For the plaque reduction assay, HFF were seeded to 100 % confluency and then pre-treated with compound M8 at 8 different concentrations. HFF were subsequently infected with CMV strain AD169, washed and again incubated with two-fold dilutions of the compound. All experiments were done in triplicates (arrow bars show SEM). […] For the plaque reduction assay, HFF were seeded to 100 % confluency. The virus preparation of CMV strain AD169 was pretreated before infection of cells with compound M8 at 8 different concentrations. HFF were subsequently infected with CMV strain AD169, washed and again incubated with two-fold dilutions of the compound. All experiments were done in triplicates (arrow bars show SEM). […] For the plaque reduction assay HFF were seeded to 100 % confluency and subsequently infected with CMV strain AD169. Cells were washed thereafter and incubated with two-fold dilutions of the compound GCV. All experiments were done in triplicates (arrow bars show SEM). […] For the plaque reduction assay HFF were seeded to 100 % confluency and then pre-treated with compound RES at 8 different concentrations. HFF were subsequently infected with CMV strain AD169, washed and again incubated with two-fold dilutions of the compound. All experiments were done in triplicates (arrow bars show SEM).
HCMV strain AD169 was prepared as described previously (Rieder et al., J. Gen. Virol. 98 (2017), 471-485). For virus production, HFF were grown to confluence and subsequently infected with HCMV AD169 at a multiplicity of infection (MOI) of 0.01. The viral inoculum was replaced by culture medium after 90 min. Upon visibility of a total cytopathic effect (CPE) (usually 8-10 days post-infection), the viral supernatant was harvested and stored at - 80°C. After thawing, cell debris was removed by centrifugation at 3,000 g for 20 min. Infectivity of the viral inoculum was then measured using a plaque assay as described elsewhere (Britt, Curr. Protoc. Microbiol. (2010), 14E.3). […] Ganciclovir (Merck Millipore) was added at the indicated concentrations after removal of the inoculum. The cells were then overlaid with growth medium containing 0.5% low-melting point agarose. After solidification of the agarose layer, the plates were incubated for 10 days at 37°C in a CO2 incubator, then fixed with 2% formaldehyde and analysed for number of plaques after staining with 1:5 diluted Mayer's Hemalaun. Plaque numbers were normalized to the mean of DMSO-treated control samples. IC50 values were calculated with Graphpad Prism (dose-response inhibition).

[2] = system: HFF; experiment: Toxicity of the compounds to HFF (inhibition of cellular metabolism); assay type: cell-based, human
[3] = treatment of HFF after CMV infection, CMV strain AD169
[4] = Human betaherpesvirus 5, AD169, cells (HFF) pretreated with compound for 90 min, CMV strain AD169, plaques counted after 10 days
[5] = cells (HFF) pretreated with compound, CMV strain AD169
[6] = virus pretreated with compound, CMV strain AD169

IC50 [1, 4] [µM] | IC50 ([1]; Human betaherpesvirus 5, AD169, virus pretreated with compound for 90 min before infection of HFF, CMV strain AD169) [µM] | SMILES | inhibition of CMV replication [1] | concentration of complete inhibition [1, 3] [µM] | concentration of initial inhibitory effect [1, 3] [µM] | concentration found to be toxic to the HFF [2] [µM] | concentration at which some inhibition of CMV was noted [1, 5] [µM] | concentration of complete inhibition of CMV [1, 5] [µM] | concentration at which inhibition was noticed [1, 6] [µM] | concentration of maximum inhibition [1, 6] [µM]
 |  | Nc1nc(O)c2ncn(COC(CO)CO)c2n1 [GCV, Ganciclovir, reference compound] | significant inhibition | ≥ 5 | 0.156 |  |  |  |  | 
~37.5 | ~3 | Oc1cc(/C=C/c2cc(O)c(O)c(O)c2)cc(O)c1O [M8, 3,3',4,4',5,5'-hexahydroxy-trans-stilbene] | significant inhibition |  |  | > 100 | 12.5 | 100 | 6.25 | 25
~100 |  | Oc1ccc(C=Cc2cc(O)cc(O)c2)cc1 [RES, resveratrol, reference compound] | significant inhibition |  |  | > 100 | 6.25 |  |  | 

— patent EP4516298A1, “STILBENE COMPOUNDS FOR USE IN THE TREATMENT AND PREVENTION OF INFECTIONS WITH CYTOMEGALOVIRUS (CMV)” (Szekeres, Thomas, priority 2023, dated 2025)
